“And” between values parts separate entries of the source, which are not always exact repeats. Equal values may be shown once.
Experiment: mn = molality of the nth substance listed, in mol/kg
Conditions: 101 kPa, Liquid; for speed of sound: Sing-around technique in a fixed-path interferometer; for mass density: Vibrating tube method

N.N.O=C(O)CC(O)(CC(=O)O)C(=O)O [ammonium citrate, dibasic] + O
Conditions	mass density, 288.15 K	mass density, 293.15 K	mass density, 298.15 K	speed of sound, 288.15 K	speed of sound, 293.15 K	speed of sound, 298.15 K
m1 = 0.0059	999.706 kg/m3	998.799 kg/m3	997.633 kg/m3	1467.4 m/s	1483.5 m/s	1497.7 m/s
m1 = 0.0071	999.822 kg/m3	998.916 kg/m3	997.747 kg/m3	1467.6 m/s	1483.7 m/s	1497.9 m/s
m1 = 0.0087	999.992 kg/m3	999.084 kg/m3	997.913 kg/m3	1467.9 m/s	1483.9 m/s	1498.1 m/s
m1 = 0.0129	1000.42 kg/m3	999.5 kg/m3	998.325 kg/m3	1468.5 m/s	1484.5 m/s	1498.7 m/s
m1 = 0.0177	1000.9 kg/m3	999.976 kg/m3	998.796 kg/m3	1469.1 m/s	1485.1 m/s	1499.3 m/s
m1 = 0.0222	1001.37 kg/m3	1000.44 kg/m3	999.256 kg/m3	1469.7 m/s	1485.7 m/s	1499.9 m/s
m1 = 0.0266	1001.8 kg/m3	1000.87 kg/m3	999.681 kg/m3	1470.2 m/s	1486.2 m/s	1500.3 m/s
m1 = 0.0311	1002.26 kg/m3	1001.32 kg/m3	1000.12 kg/m3	1470.9 m/s	1486.8 m/s	1501 m/s
m1 = 0.0354	1002.69 kg/m3	1001.75 kg/m3	1000.55 kg/m3	1471.5 m/s	1487.4 m/s	1501.5 m/s
m1 = 0.0423	1003.38 kg/m3	1002.43 kg/m3	1001.23 kg/m3	1472.4 m/s	1488.3 m/s	1502.4 m/s
m1 = 0.0446	1003.62 kg/m3	1002.67 kg/m3	1001.46 kg/m3	1472.8 m/s	1488.7 m/s	1502.7 m/s
m1 = 0.0468	1003.84 kg/m3	1002.88 kg/m3	1001.67 kg/m3	1473.1 m/s	1488.9 m/s	1503 m/s
m1 = 0.0492	1004.09 kg/m3	1003.13 kg/m3	1001.92 kg/m3	1473.4 m/s	1489.3 m/s	1503.3 m/s
m1 = 0.0562	1004.75 kg/m3	1003.78 kg/m3	1002.56 kg/m3	1474.3 m/s	1490.1 m/s	1504.1 m/s
m1 = 0.0645	1005.59 kg/m3	1004.61 kg/m3	1003.38 kg/m3	1475.4 m/s	1491.2 m/s	1505.2 m/s
m1 = 0.0748	1006.57 kg/m3	1005.58 kg/m3	1004.34 kg/m3	1476.8 m/s	1492.5 m/s	1506.4 m/s
m1 = 0.0797	1007.07 kg/m3	1006.07 kg/m3	1004.83 kg/m3	1477.4 m/s	1493.1 m/s	1507 m/s
m1 = 0.09	1008.08 kg/m3	1007.07 kg/m3	1005.81 kg/m3	1478.8 m/s	1494.4 m/s	1508.2 m/s
m1 = 0.5	1044.77 kg/m3 and 1044.77 kg/m3 and 1044.73 kg/m3	1043.38 kg/m3 and 1043.38 kg/m3 and 1043.34 kg/m3	1041.8 kg/m3 and 1041.8 kg/m3 and 1041.76 kg/m3	1529.2 m/s and 1529 m/s and 1529 m/s	1542.8 m/s and 1542.6 m/s and 1542.7 m/s	1554.8 m/s and 1554.6 m/s and 1554.6 m/s
m1 = 0.988	1082.62 kg/m3	1080.92 kg/m3	1079.09 kg/m3	1585.1 m/s	1596.5 m/s	1606.5 m/s
m1 = 0.997	1082.58 kg/m3	1080.88 kg/m3	1079.04 kg/m3	1584.9 m/s	1596.4 m/s	1606.4 m/s
m1 = 0.998	1082.63 kg/m3	1080.93 kg/m3	1079.09 kg/m3	1585 m/s	1596.5 m/s	1606.5 m/s

Reference: the NIST ThermoML archive (doi:10.1016/j.jct.2010.08.021)
